Assay type in all cases: cell-based, human
Test [1] deals with primary AML samples (MNC). Nature of the test: Viability (Annexin V/7AAD) assay, AML samples. As for the experimental part:
Cryopreserved mononuclear cells (MNC from BM or leukapheresis samples) were thawed in a water bath at 37° C. and cell suspension transferred to a 50 mL tube. 20 mL of IMDM media (Sigma, 13390) supplemented with 20% FBS (JRH Biosciences), 50 U/mL DNase I (Sigma), 100 IU/mL penicillin (Sigma), 100 μg/mL streptomycin (Sigma) and 2 mM L-glutamine (Sigma) was added dropwise to the cells while the tube was being vortexed slowly (or mixed by hand). The cells were centrifuged at 400 g for 5 min, supernatant was discarded and the cells were washed once with 20 mL PBS. […] The next morning, viability was determined by trypan blue exclusion and samples with viability lower than 85% underwent dead cell removal by density gradient centrifugation as follows: 15 mL of Lymphoprep (AXIS-Shield) was transferred to a 50 mL tube and the cell suspension (25 mL) carefully overlayed (so as not to disturb the interface mixing with the Lymphoprep). […] Viability and cell density were determined by trypan blue exclusion and cells were plated for respective experiments as described in the Results section.
(§1) 2×10^5 cells (200 μL) were harvested in 5 mL tubes and washed 3 times with PBS. […] Results were analysed with FCS Express 4 Flow Research Edition software (De Novo Software). […]

The test system of test [2] is healthy control (HC) BMMNC samples. The experiment in a line: Viability (Annexin V/7AAD) assay, healthy control samples. How it is done:
Cryopreserved mononuclear cells (MNC from BM or leukapheresis samples) were thawed in a water bath at 37° C. and cell suspension transferred to a 50 mL tube. 20 mL of IMDM media (Sigma, 13390) supplemented with 20% FBS (JRH Biosciences), 50 U/mL DNase I (Sigma), 100 IU/mL penicillin (Sigma), 100 μg/mL streptomycin (Sigma) and 2 mM L-glutamine (Sigma) was added dropwise to the cells while the tube was being vortexed slowly (or mixed by hand). The cells were centrifuged at 400 g for 5 min, supernatant was discarded and the cells were washed once with 20 mL PBS. After the wash, the cells were resuspended in 25 mL IMDM (Sigma, 13390) supplemented with 20% FBS (JRH Biosciences), 100 IU/mL penicillin (Sigma), 100 μg/mL streptomycin (Sigma) and 2 mM L-glutamine (Sigma), and incubated overnight for recovery. The next morning, viability was determined by trypan blue exclusion and samples with viability lower than 85% underwent dead cell removal by density gradient centrifugation as follows: 15 mL of Lymphoprep (AXIS-Shield) was transferred to a 50 mL tube and the cell suspension (25 mL) carefully overlayed (so as not to disturb the interface mixing with the Lymphoprep). The tubes were centrifuged at 800 g for 20 min with acceleration set at 5 (half of the maximum) and no brake. MNC layer (formed in the interface between the media and the Lymphoprep) was transferred with a disposable Pasteur pipet into a 50 mL tube containing 20 mL PBS. […] Viability and cell density were determined by trypan blue exclusion and cells were plated for respective experiments as described in the Results section.
as §1

Test [3] deals with GPR56+ LSC containing population of AML samples. The experiment in a line: LSC detection by flow cytometry (CD34, CD38, GPR56). How it is done:
8×10^5 cells (800 μL) were harvested in 5 mL tubes and fixed with 1.6% formaldehyde for 10 min at room temperature. The samples were then washed once with PBS and once with PBS/1% BSA. The cell pellets were resuspended in 100 μL PBS/1% BSA containing 5 μL of anti-CD34-APC (BD Biosciences, clone 8G12, catalogue 340441, lot 6183704), 5 μL of anti-CD38-PECy7 (BD Biosciences, 335790, lot 3353807) and 5 μL of anti-GPR56-PE (Biolegend, 358204, lot B208353) and incubated at room temperature for 1 h in the dark. Finally, cells were washed twice with PBS and resuspended in 200 μL of PBS for analysis on an LSRFortessa (BD Biosciences) flow cytometer. Results were analysed with FCS Express 4 Flow Research Edition software (De Novo Software).
LSC analysis. AML BMMNC samples were first gated for viable cells and then the fraction of GPR56+ cells was determined. According to the report by Pabst and collaborators (Pabst et al, Blood 2016), in CD34^high AML samples the GPR56+ population containing LSCs is present within the CD34+ cells, while in CD34^low AML samples the GPR56+ population containing LSCs is present in both CD34+ and CD34− cell populations. Therefore, the LSC containing subpopulation was estimated from the CD34+/GPR56+ gate for AML235, and from the GPR56+/CD34+ and GPR56+/CD34− gates in AML136 and AML480 (FIG. 6A). A decrease in these subpopulations in response to EX 1 would be consistent with the drug targeting the important LSC-containing compartment. […] On the other hand, OXi4503 treatment, when compared to vehicle control (DMSO), had little effect on AML136 and no effect on AML235 and AML480 (FIG. 6B).

Experimental findings from patent publication US11478445B2, “Method for treating acute myeloid leukemia” (Bionomics Limited, priority 2017, dated 2022) are described below.

With `COc1cc(C(=O)c2c(C)oc3c(O)c(OC)ccc23)cc(OC)c1OC` [EX 1, 2-Methyl-7-hydroxy-3-(3,4,5-trimethoxybenzoyl)-6-methoxybenzofuran], the “viability (live cells, Annexin V/7AAD)” value in test [1] (48 h to 72 h) is given as “viability decreasing substantially”; in test [2] (48 h), “some reduced viability”; in test [2] (up to 72 h), “viability remained stable”. Also, the “GPR56+ LSC containing cell population” value in test [3] (AML136, AML235, AML480, 48 h) is listed as “affected at different rates”. Further, the “concentration at which the LSC population is decreased (as low as)” value in test [3] (AML samples, 48 h, FIG. 6C) came out at 20 nM.

As to `COc1cc(/C=C\c2ccc(OC)c(OP(=O)(O)O)c2OP(=O)(O)O)cc(OC)c1OC` [OXi4503, reference compound], the “response to treatment (viability)” value in test [1] and in test [2] was “did not show a response” in each case. The “effect on GPR56+ LSC containing population vs DMSO” value in test [3] (AML136, 48 h) is “little effect”; in test [3] (AML235 and AML480, 48 h), “no effect”.
